The text below walks through data of PubChem BioAssay AID588647 (Sanford-Burnham Center for Chemical Genomics, 2011).

Several values for one entry are separate records, joined by “and”; a condition that tells them apart may be missing. Equal entries are not always repeated. Activity calls are given as the source filed them. How the calls were made is not given here.

The term IC50 denotes the concentration needed to halve the response being measured.

The target in the experiment is intestinal alkaline phosphatase (Mus musculus). Description: mouse IAP inhibition by analogs – biochemical, luminescence, set 2, SAR follow-up (AID 588647). The following applies: purified mouse IAP, luminescent substrate read-out.
With `COc1ccc(NC(=O)CCNS(=O)(=O)c2ccc3c(c2)CCC3)cc1OC`, the IC50 is > 100 µM (inactive). The figure for `COc1ccc(CNC(=O)CCNS(=O)(=O)c2ccc3[nH]c(=O)oc3c2)cc1` is 3 µM and 2.3 µM; for `O=C(CNS(=O)(=O)c1ccc2[nH]c(=O)oc2c1)NCCc1ccc2c(c1)OCO2` it is > 100 µM (inactive). Under `Cc1ccc(C)c(NS(=O)(=O)c2ccc3[nH]c(=O)oc3c2)c1` stands > 100 µM (inactive). The figure for `COc1ccc(CNC(=O)CCNS(=O)(=O)c2ccc3c(c2)CCC3)c(OC)c1` is > 100 µM (inactive); for `Cc1ccc(C)c(NC(=O)CNS(=O)(=O)c2ccc3[nH]c(=O)oc3c2)c1` it is 0.93 µM and 0.54 µM; for `CN(C)c1ccc(CNC(=O)C2CCCN(S(=O)(=O)c3ccc4[nH]c(=O)oc4c3)C2)cc1` (stereo unspecified) it is > 100 µM (inactive).

Take `Cc1ccccc1CNC(=O)C1CCCN(S(=O)(=O)c2ccc3[nH]c(=O)oc3c2)C1` (stereo unspecified): the IC50 was > 100 µM (inactive).

Regarding `COc1ccc(CCNC(=O)CCCNS(=O)(=O)c2ccc3[nH]c(=O)oc3c2)cc1OC`, the IC50 was 1.5 µM. On to `COc1ccc(CNC(=O)CNS(=O)(=O)c2ccc3[nH]c(=O)oc3c2)c(OC)c1`, for which the IC50 was > 100 µM (inactive). Under `CCc1ccc(NC(=O)C2CCCN(S(=O)(=O)c3ccc4c(c3)oc(=O)n4C)C2)cc1` (stereo unspecified) stands > 100 µM (inactive); under `CC(=NNC(=O)c1ccccc1OCCOc1ccccc1)c1ccccc1F`, > 100 µM (inactive); under `O=C(N/N=C/c1ccccc1F)c1ccccc1OCc1ccccc1`, > 100 µM (inactive). With `O=C(N/N=C/c1ccccc1Cl)c1cc(O)c(O)c(O)c1`, the IC50 is 7.49 µM.

Regarding `O=C(N/N=C/c1ccc(F)cc1F)c1ccc(O)cc1`, the IC50 was > 100 µM (inactive). With `Cc1ccc(NC(=O)CCNS(=O)(=O)c2ccc3c(c2)oc(=O)n3C)cc1C`, the IC50 was > 100 µM (inactive). The figure for `O=C(CCNS(=O)(=O)c1ccc2[nH]c(=O)oc2c1)NCc1cccc(F)c1` is > 100 µM (inactive); for `Cc1ccccc1CNC(=O)CCCNS(=O)(=O)c1ccc2[nH]c(=O)oc2c1` it is > 100 µM (inactive). The figure for `Cc1ccc(C)c(NC(=O)CCNS(=O)(=O)c2ccc3ccccc3c2)c1` is 78 µM; for `O=C(N/N=C/c1ccc(F)c(Br)c1)c1cc(O)c(O)c(O)c1` it is 8.37 µM; for `Cc1ccc(C)c(CNC(=O)C2CCCN(S(=O)(=O)c3ccc4[nH]c(=O)oc4c3)C2)c1` (stereo unspecified) it is > 100 µM (inactive). Under `CCOc1cc(C(=O)N/N=C/c2c(F)cccc2Cl)cc(OCC)c1OCC` stands > 100 µM (inactive); under `O=C(N/N=C/c1c(F)cccc1Cl)c1cc(O)c(O)c(O)c1`, 8.02 µM. Consider `O=C(CCNS(=O)(=O)c1ccc2ccccc2c1)NCCc1ccc2c(c1)OCO2`, for which the IC50 is > 100 µM (inactive). Consider `COc1ccc(CNC(=O)CCNS(=O)(=O)c2ccc3ccccc3c2)c(OC)c1`, for which the IC50 is > 100 µM (inactive).

With `O=C(CCNS(=O)(=O)c1ccc2[nH]c(=O)oc2c1)Nc1ccc2c(c1)OCO2`, the IC50 was 12 µM. The figure for `COc1ccc(C(=O)N/N=C/c2c(F)cccc2Cl)cc1OC` is > 100 µM (inactive). Consider `COc1ccc(NC(=O)CCCNS(=O)(=O)c2ccc3[nH]c(=O)oc3c2)c(OC)c1`, for which the IC50 was 6.3 µM. The figure for `COc1ccc(CNC(=O)C2CCCN(S(=O)(=O)c3ccc4[nH]c(=O)oc4c3)C2)cc1` (stereo unspecified) is > 100 µM (inactive).

Turning to `COc1ccc(C(=O)N/N=C/c2ccccc2F)cc1`, the IC50 is > 100 µM (inactive). Under `O=C(N/N=C/c1c(Cl)cccc1Cl)c1cc(O)c(O)c(O)c1` stands 11.1 µM; under `O=C(NCc1ccc(F)cc1)C1CCCN(S(=O)(=O)c2ccc3[nH]c(=O)oc3c2)C1` (stereo unspecified), > 100 µM (inactive); under `O=C(CCNS(=O)(=O)c1ccc2[nH]c(=O)oc2c1)NCCc1ccc(O)cc1`, > 100 µM (inactive). As for `COc1cccc(/C=N/NC(=O)c2cc(O)c(O)c(O)c2)c1O`, the IC50 is 4.01 µM.

As for `O=C(CCNS(=O)(=O)c1ccc2[nH]c(=O)oc2c1)NCc1ccc(O)c(O)c1`, the IC50 was 7.7 µM. Under `O=C(CCNS(=O)(=O)c1ccc2[nH]c(=O)oc2c1)NCc1ccccc1` stands 81 µM; under `COc1cccc(NC(=O)CCNS(=O)(=O)c2ccc3c(c2)oc(=O)n3C)c1`, > 100 µM (inactive); under `O=C(CCS(=O)(=O)Nc1ccc2[nH]c(=O)oc2c1)NCc1cccc(Cl)c1`, 67 µM.

With `O=C(CCNS(=O)(=O)c1ccc2[nH]c(=O)oc2c1)NCc1cccc(Cl)c1`, the IC50 was > 100 µM (inactive). The figure for `Cc1cc(NC(=O)CCNS(=O)(=O)c2ccc3[nH]c(=O)oc3c2)ccc1Br` is 94 µM; for `COc1cccc(CNC(=O)CCNS(=O)(=O)c2ccc3[nH]c(=O)oc3c2)c1` it is 0.82 µM and 34 µM and > 100 µM (inactive); for `CCc1ccc(NC(=O)CCNS(=O)(=O)c2ccc3c(c2)oc(=O)n3C)cc1` it is > 100 µM (inactive). The figure for `N#Cc1ccc(NC(=O)CNS(=O)(=O)c2ccc3[nH]c(=O)oc3c2)cc1` is 1.6 µM and 4.7 µM; for `Cc1ccc(C)c(NC(=O)C2CCCN(S(=O)(=O)c3ccc4c(c3)oc(=O)n4C)C2)c1` (stereo unspecified) it is > 100 µM (inactive); for `CSc1cccc(NC(=O)CCNS(=O)(=O)c2ccc3c(c2)oc(=O)n3C)c1` it is > 100 µM (inactive).

In the case of `O=C(CCNS(=O)(=O)c1ccc2[nH]c(=O)oc2c1)NCc1ccc(F)cc1`, the IC50 was > 100 µM (inactive). `COc1ccccc1CNC(=O)CCCNS(=O)(=O)c1ccc2[nH]c(=O)oc2c1`: the IC50 is 2 µM and 5.4 µM.

As to `COc1ccc(CNC(=O)CNS(=O)(=O)c2ccc3[nH]c(=O)oc3c2)cc1`, the IC50 is 0.89 µM and 2.1 µM and 2.5 µM. Under `O=C(CCS(=O)(=O)Nc1ccc2[nH]c(=O)oc2c1)NCc1ccccc1Cl` stands 86 µM. Under `Cc1ccc(CNC(=O)C2CCCN(S(=O)(=O)c3ccc4[nH]c(=O)oc4c3)C2)cc1` (stereo unspecified) stands > 100 µM (inactive).

With `O=C(CCNS(=O)(=O)c1ccc2[nH]c(=O)oc2c1)NCc1ccccc1F`, the IC50 is > 100 µM (inactive). Under `COc1ccccc1CNC(=O)CCNS(=O)(=O)c1ccc2[nH]c(=O)oc2c1` stands > 100 µM (inactive); under `O=C(N/N=C/c1cccc(Cl)c1Cl)c1cc(O)c(O)c(O)c1`, 19.9 µM. Under `COc1ccc(CNS(=O)(=O)c2ccc3[nH]c(=O)oc3c2)c(OC)c1` stands 89 µM. As for `COc1ccc(/C=N\NC(=O)c2cc(O)c(O)c(O)c2)cc1CN1CCN(c2ccc(F)cc2)CC1`, the IC50 is 27.9 µM.

Regarding `Cc1ccc(NC(=O)CCNS(=O)(=O)c2ccc3c(c2)oc(=O)n3C)cc1`, the IC50 is 99 µM. The figure for `CC(C)Oc1ccc(CNC(=O)C2CCCN(S(=O)(=O)c3ccc4[nH]c(=O)oc4c3)C2)cc1` (stereo unspecified) is > 100 µM (inactive).

With `CC(C)(C)c1ccc(/C=N/NC(=O)c2cc(O)c(O)c(O)c2)cc1`, the IC50 was > 100 µM (inactive). Under `COc1ccc(NC(=O)CCCNS(=O)(=O)c2ccc3[nH]c(=O)oc3c2)cc1OC` stands 1.5 µM. Consider `Cc1ccc(C)c(NC(=O)CCNS(=O)(=O)c2ccc3c(c2)CCC3)c1`, for which the IC50 was > 100 µM (inactive).

On to `N#Cc1ccc(NS(=O)(=O)c2ccc3[nH]c(=O)oc3c2)cc1`, for which the IC50 was > 100 µM (inactive). The figure for `COc1ccc(CNC(=O)CCCNS(=O)(=O)c2ccc3[nH]c(=O)oc3c2)cc1OC` is 78 µM; for `O=C(N/N=C/c1ccc(Cl)c(Cl)c1)c1cc(O)c(O)c(O)c1` it is 9.66 µM; for `N#Cc1cccc(NS(=O)(=O)c2ccc3[nH]c(=O)oc3c2)c1` it is > 100 µM (inactive). For the compound `O=C(N/N=C/c1ccccc1F)c1ccc(O)cc1O`, the IC50 is > 100 µM (inactive). Turning to `COc1cc(C(=O)N/N=C/c2c(F)cccc2Cl)cc(OC)c1OC`, the IC50 was > 100 µM (inactive).

As to `N#Cc1cccc(NC(=O)CNS(=O)(=O)c2ccc3[nH]c(=O)oc3c2)c1`, the IC50 is 1.4 µM and > 100 µM (inactive). On to `COc1ccc(CCNC(=O)CCCNS(=O)(=O)c2ccc3[nH]c(=O)oc3c2)cc1`, for which the IC50 was 7.4 µM. As for `COc1ccc(NC(=O)CCNS(=O)(=O)c2ccc3[nH]c(=O)oc3c2)cc1OC`, the IC50 was 0.53 µM and 0.54 µM. Under `O=C(CCS(=O)(=O)Nc1ccc2[nH]c(=O)oc2c1)NCc1cccc(F)c1` stands 66 µM; under `COc1ccc(NS(=O)(=O)c2ccc3[nH]c(=O)oc3c2)cc1OC`, > 100 µM (inactive); under `COc1cccc(CNC(=O)CNS(=O)(=O)c2ccc3[nH]c(=O)oc3c2)c1`, 1.8 µM and 0.73 µM. The figure for `O=C(N/N=C/c1ccc(Br)cc1F)c1cc(O)ccc1O` is > 100 µM (inactive); for `O=c1[nH]c2ccc(S(=O)(=O)NCCc3ccc4c(c3)OCO4)cc2o1` it is > 100 µM (inactive); for `O=C(CCCNS(=O)(=O)c1ccc2[nH]c(=O)oc2c1)NCc1cccc(F)c1` it is 2.8 µM and 13 µM. Under `O=c1[nH]c2ccc(S(=O)(=O)Nc3ccc4c(c3)OCO4)cc2o1` stands > 100 µM (inactive). For `O=C(NN=Cc1ccccc1F)c1ccc(O)cc1`, the IC50 is > 100 µM (inactive). The figure for `COc1ccc(/C=N/NC(=O)c2cc(O)c(O)c(O)c2)c(OC)c1` is 8.41 µM; for `Cc1ccc(CNC(=O)CCNS(=O)(=O)c2ccc3[nH]c(=O)oc3c2)cc1` it is 89 µM. As for `O=C(CCCNS(=O)(=O)c1ccc2[nH]c(=O)oc2c1)NCc1ccccc1Cl`, the IC50 is 1.6 µM and > 100 µM (inactive). For `CCOc1cc(C(=O)N/N=C/c2ccccc2F)cc(OCC)c1OCC`, the IC50 is > 100 µM (inactive). Under `COc1cc(/C=N/NC(=O)c2cc(O)c(O)c(O)c2)ccc1O` stands 3.87 µM; under `O=C(N/N=C/c1c(F)cccc1F)c1ccc(O)cc1`, > 100 µM (inactive).

Turning to `N#Cc1cccc(CNC(=O)CCNS(=O)(=O)c2ccc3[nH]c(=O)oc3c2)c1`, the IC50 was 2 µM. The figure for `COc1ccc(NC(=O)CCNS(=O)(=O)c2ccc3ccccc3c2)cc1OC` is > 100 µM (inactive). The figure for `COc1cccc(C(=O)N/N=C/c2ccccc2F)c1` is > 100 µM (inactive).
